Measurements reported in US9512091B2, “Compositions and methods for the modulation of specific amidases for N-acylethanolamines for use in the therapy of inflammatory diseases” (Epitech Group S.r.l., priority 2012, dated 2016).

Key:
[1] = target: T1, NAAA (N-Acylethanolamine Hydrolizing Acid Amidase) (Homo sapiens, UniProt Q02083); assay: Activity on the NAAA enzyme, membranes of HEK-NAAA cells, [14C]PEA hydrolysis; assay type: biochemical; settings: HEK-NAAA membranes 50 μg/sample, [14C]PEA 20 μM, 30 min at 37° C.; mean of 10 experiments; read-out: Inhibition of NAAA IC50 (after 30 min incubation)
T1 construct: expressed in transfected cells; host or cells: HEK cells permanently transfected with NAAA (HEK-NAAA); 12000 g membrane fraction
T1 sequence (Q02083 29-359): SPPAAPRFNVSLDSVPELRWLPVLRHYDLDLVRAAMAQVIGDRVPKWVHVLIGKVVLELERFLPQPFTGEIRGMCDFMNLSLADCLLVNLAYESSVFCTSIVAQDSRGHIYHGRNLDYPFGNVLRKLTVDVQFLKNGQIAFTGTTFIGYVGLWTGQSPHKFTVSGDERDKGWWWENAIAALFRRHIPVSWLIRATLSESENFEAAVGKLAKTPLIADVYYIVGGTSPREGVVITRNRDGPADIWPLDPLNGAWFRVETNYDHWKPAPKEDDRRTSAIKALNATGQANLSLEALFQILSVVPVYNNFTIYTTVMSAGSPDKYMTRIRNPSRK
Protocol: The effect of the samples being analysed on the enzymatic activity of the NAAA (N-Acylethanolamine Hydrolizing Acid Amidase) was determined on suitably permanently transfected cellular lines (HEK-NAAA). The cells were homogenised using TRIS-HCl 20 Mm (pH 7.4) by means of dounce. Subsequently a mild centrifugation (10 min, 800 g, 4° C.) was carried out for removing the cellular debris. The cellular fraction containing the membranes was obtained by means of subsequent centrifugation (30 min, 12000 g, 4° C.). The membranes (50 μg/sample) were incubated for 30 min at 37° C. with [^14C]PEA (20 μM; 10000 cpm/sample; 5 nCi/nmols) in presence and in absence of the substances to be tested. The incubation was blocked by adding 2 volumes of CHCl3/CH3OH (1:1/v:v). The radioactivity associated to the aqueous phase containing [^14C]Ethanolamine (produced by the hydrolysis of the radioactive substrate) was determined by means of β-Counter (Beckman Counter, LS6500 Scintillation Counters, Milan).

[2] = Solubility of the prepared product; assay type: physicochemical; settings: for solubility / Solubility in ethanol: ethanol; for solubility: organic solvent or mixture
[3] = system: edema of the legs induced by sub-plantar carrageenan; assay: Carrageenan edema of the legs, plantar volume by plethysmometer; assay type: in vivo, rat; settings: for increase of plantar volume in percentage with respect to carrageenan alone (carrageenan=100): rat, PEA 33 μM/Kg, PEA-OXA (30 mg/Kg) μM/Kg, 5 experiments
Protocol: The experimental model of edema of the legs is induced through sub-plantar injection of a carrageenan solution (containing 50 μl of sterile saline solution and 1% of carrageenan) in the right leg of the animal (rat).
At specific time intervals the plantar volume is measured by means of a plethysmometer (Ugo Basile, Milan, Italy). The increase of the plantar volume is evaluated as the difference between the value obtained in the specific time intervals and the volume at the basal (time 0) measured immediately before the administration of carrageenan.
The data obtained from 5 different experiments, each involving 10 animals per group, were tabled (tab 2) in percentage with respect to the animals treated with carrageenan alone (carrageenan=100): […]

[4] = system: hepatic esterases; settings: prior-art statement on poor selectivity; cited from earlier work

## O=C(CCc1ccccc1)N[C@H]1COC1=O [(S)-N-(2-oxo-3-oxetanyl)-3-phenylpropionamide, reference compound]
[1]
  IC50: 0.42 µM

## CCCCCCCCCCCCCCCC1=NC(C)(C)CO1 [Example 5, 2-pentadecyl-4,4-dimethyl-2-oxazoline]
[2]
  solubility: > 10000 µg/mL
  Solubility in water: poorly soluble

## CCCCCCCCCCCCCCCC1=NC(CO)(CO)CO1 [Example 6, 2-pentadecyl-4,4-bis(hydroxymethyl)-2-oxazoline]
[2]
  solubility: > 10000 µg/mL
  Solubility in water: poorly soluble

## CCCCCCCCCCCCCCC1=NCCO1 [Example 7, 2-tetradecyl-2-oxazoline]
[2]
  solubility: > 10000 µg/mL
  Solubility in water: poorly soluble
other
  melting point: 41 to 44 °C

## CCCCCCCCCCCCCCCCC1=NCCO1 [Example 8, 2-hexadecyl-2-oxazoline]
[2]
  solubility: > 10000 µg/mL
  Solubility in water: poorly soluble
other
  melting point: 49 to 51 °C

## CCCCCCCCCCCCCCCC1=NC[C@@H](C)O1 [Example 9, 2-pentadecyl-5(R)-methyl-2-oxazoline]
[2]
  solubility: > 10000 µg/mL
  Solubility in water: poorly soluble

## CCCCCCCCCCCCCCCC1=NC[C@H](C)O1 [Example 10, 2-pentadecyl-5(S)-methyl-2-oxazoline]
[2]
  solubility: > 10000 µg/mL
  Solubility in water: poorly soluble

## CCCCCCCCCCCCCCCC1=N[C@H](C)CO1 [Example 11, 2-pentadecyl-4(R)-methyl-2-oxazoline]
[2]
  solubility: > 10000 µg/mL
  Solubility in water: poorly soluble

## CCCCCCCCCCCCCCCC1=N[C@@H](C)CO1 [Example 12, 2-pentadecyl-4(S)-methyl-2-oxazoline]
[2]
  solubility: > 10000 µg/mL
  Solubility in water: poorly soluble

## CCCCCCCCCCCCCCCC1=NC(CO)CO1 (centres unmarked) [Example 13, 2-pentadecyl-4-hydroxymethyl-2-oxazoline]
[2]
  solubility: > 10000 µg/mL
  Solubility in water: poorly soluble

## CCCCCCCCCCCCCCCC1=NC(C(=O)OC)CO1 (centres unmarked) [Example 14, 2-pentadecyl-4-methyloxycarbonyl-2-oxazoline]
[2]
  solubility: > 10000 µg/mL
  Solubility in water: poorly soluble

## CCCCCCCCCCCCCCCC1=NC(C(=O)O)CO1 (centres unmarked) [Example 14b, 2-pentadecyl-4-carboxy-2-oxazoline]
[2]
  solubility: > 10000 µg/mL
  Solubility in water: poorly soluble

## CCCCCCCCCCCCCCCC1=NCCCO1 [Example 15, 2-pentadecyl-2-oxazine]
[2]
  Solubility in ethanol: > 10000 µg/mL
  Solubility in water: poorly soluble

## CCCCCCCCCCCCCCCC1=NCCS1 [Example 16, 2-pentadecyl-2-thiazoline]
[2]
  solubility: > 10000 µg/mL
  Solubility in water: poorly soluble

## CCCCCCCCCCCCCC(=O)NCCO [MEA, Myristoyl ethanolamide, reference compound]
[1]
  IC50: > 50 µM

## CCCCCCCCCCCCCC1=NCCO1 [MEA-OXA, 2-tridecyl-2-oxazoline]
[2]
  solubility: > 10000 µg/mL
  Solubility in water: poorly soluble
[1]
  IC50: 41.5 ± 0.032 µM

## CCCCCCCC/C=C\CCCCCCCC(=O)NCCO [OEA, Oleoylethanolamine, reference compound]
[1]
  IC50: > 50 µM

## CCCCCCCCC=CCCCCCCCC1=NCCO1 [OEA-OXA, 2-(8-heptadecenyl)-2-oxazoline]
[2]
  solubility: > 10000 µg/mL
  Solubility in water: poorly soluble
[1]
  IC50: 38.4 ± 0.034 µM

## CCCCCCCCCCCCCCCC(=O)NCCO [PEA, Palmitoylethanolamide, reference compound]
[3]; 30 min
  increase of plantar volume in percentage with respect to carrageenan alone (carrageenan=100): 89.2 ± 2.2%
[3]; 1 hr
  increase of plantar volume in percentage with respect to carrageenan alone (carrageenan=100): 82 ± 1.8%
[3]; 2 hrs
  increase of plantar volume in percentage with respect to carrageenan alone (carrageenan=100): 78.3 ± 1.6%
[3]; 3 hrs
  increase of plantar volume in percentage with respect to carrageenan alone (carrageenan=100): 73.9 ± 2.1%
[3]; 4 hrs
  increase of plantar volume in percentage with respect to carrageenan alone (carrageenan=100): 70.1 ± 1.9%
[3]; 5 hrs
  increase of plantar volume in percentage with respect to carrageenan alone (carrageenan=100): 54.5 ± 0.63%
[3]; 6 hrs
  increase of plantar volume in percentage with respect to carrageenan alone (carrageenan=100): 32.9 ± 0.41%
[1]
  IC50: > 50 µM

## CCCCCCCCCCCCCCCC1=NCCO1 [PEA-OXA, 2-pentadecyl-2-oxazoline]
[3]; 30 min
  increase of plantar volume in percentage with respect to carrageenan alone (carrageenan=100): 88.2 ± 2.0%
[3]; 1 hr
  increase of plantar volume in percentage with respect to carrageenan alone (carrageenan=100): 81.2 ± 2.1%
[3]; 2 hrs
  increase of plantar volume in percentage with respect to carrageenan alone (carrageenan=100): 66.6 ± 0.78%
[3]; 3 hrs
  increase of plantar volume in percentage with respect to carrageenan alone (carrageenan=100): 59.6 ± 0.62%
[3]; 4 hrs
  increase of plantar volume in percentage with respect to carrageenan alone (carrageenan=100): 51.4 ± 0.58%
[3]; 5 hrs
  increase of plantar volume in percentage with respect to carrageenan alone (carrageenan=100): 43.0 ± 0.42%
[3]; 6 hrs
  increase of plantar volume in percentage with respect to carrageenan alone (carrageenan=100): 31.2 ± 0.22%
[3]; rat carrageenan edema, especially between 2 and 5 hours from carrageenan
  anti-inflammatory activity with respect to PEA: greater anti-inflammatory activity
[2]
  solubility: > 10000 µg/mL
  Solubility in water: poorly soluble
[1]
  IC50: 24.2 ± 0.018 µM

## CCCCCCCCCCCCCCCC1=NCCO1 [PEA-OXLE]
[2]
  Solubility in ethanol: > 10000 µg/mL
  Solubility in water: poorly soluble
[1]
  IC50: 32.1 ± 0.031 µM

## CCCCCCCCCCCCCCCCCC(=O)NCCO [SEA, Stearylethanolamide, reference compound]
[1]
  IC50: > 50 µM

## CCCCCCCCCCCCCCCCCC1=NCCO1 [SEA-OXA, 2-heptadecyl-2-oxazoline]
[2]
  solubility: > 10000 µg/mL
  Solubility in water: poorly soluble
other
  melting point: 51 to 53 °C
[1]
  IC50: 35 ± 0.021 µM

## NC(=O)c1cccc(-c2cccc(OC(=O)NC3CCCCC3)c2)c1 [URB597, cyclohexyl carbamic acid 3′-carbamoyl-biphenyl-3-yl ester]
[4]
  inhibition of hepatic esterases: more than 40%
